Test results: PubChem BioAssay AID624265 (Broad Institute, 2012)
The source made the active and inactive calls.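 How the source made its calls: active means at a dose no more than twice the top valid tested dose, the fitted curve drops below -35% activity change; inactive means the rest, rising-direction activity included.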

Assay: NIH3T3 cell viability loss, ATP content – CellTiter-Glo luminescence, cherry-pick, set 2, cytotoxicity control for HSP40 inhibitor project, dose response (AID 624265);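 further: cells exposed to compound for 48 hours before the ATP read; 0% = median neutral control signal and -100% = no luminescence left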
Conditions: NIH3T3 viability, CellTiter-Glo ATP luminescence

Compound	activity change, negative = toxicity (at 50 µM (top of the series))	other results
Nc1nc2sc3c(c2c(=O)s1)CCCC3	13.7% (inactive)	–
O=C(Nc1cc(Oc2ccc(Cl)cc2)cc([N+](=O)[O-])c1)c1ccco1	-2.9% (inactive)	–
C(=C1c2ccccc2-c2ccccc21)c1ccncc1	14.2% (inactive)	–
Cc1ccc(-n2nnnc2SCC(=O)N2CCc3ccccc3C2)c(C)c1	3.85% (inactive)	–
O=S1OC(c2ccccc2)c2cc(Cl)ccc21 (stereo unspecified)	8.75% (inactive)	–
C=CCNC(=S)N1CCC(Cc2ccccc2)CC1	7.32% (inactive)	–
Cc1ccc(O)c(-c2cc(-c3ccccc3C)[nH]n2)c1	-5.19% (inactive)	–
CCCCC(=O)NC(c1ccco1)c1cc(Cl)c2cccnc2c1O (stereo unspecified)	-22.9% (inactive)	–
Cc1cc(C)c(C(=O)CC(=O)c2cccnc2)c(C)c1	8.73% (inactive)	–
COc1cc2c(c(OC)c1OC)-c1ccc(O)c(=O)cc1[C@@H](NC(C)=O)CC2	4.18% (inactive)	–
O=C(CCCSc1ccccc1)Nc1nc(-c2ccccn2)cs1	-1.21% (inactive)	–
O=C(NCCC1=CCCCC1)c1c(O)nc2sccn2c1=O	15.1% (inactive)	–
CN1CCN(C(=O)c2cc(COc3ccc(F)cc3Cl)on2)CC1c1ccccc1 (stereo unspecified)	14.2% (inactive)	–
Cc1cccc(NC(=S)NC(C)CCc2ccccc2)c1 (stereo unspecified)	12.9% (inactive)	–
O=C(c1ccccc1)c1coc2c1C(=O)c1ccccc1C2=O	-10.3% (inactive)	–
COc1cc2cnc(-c3ccccc3)c(C(=O)c3ccc(F)cc3)c2cc1OC	26.6% (inactive)	–
CC1(C(=O)OCC(=O)Nc2ccc3ccccc3c2)CC1(Cl)Cl (stereo unspecified)	0.196% (inactive)	–
Cc1ccoc1C(=O)Nc1cccc(Oc2ccccc2)c1	9.85% (inactive)	–
Cc1ccc2oc(-c3ccccc3)c(C(=O)O)c(=O)c2c1	-13.9% (inactive)	–
COc1ccc2[nH]c(=O)c(CN(Cc3cccnc3)C(=O)Nc3ccccc3)cc2c1	-11.7% (inactive)	–
CCOC(=O)c1ccc(NC(=S)N(Cc2cccnc2)Cc2ccco2)cc1	2.56% (inactive)	–
Cc1csc(NC(=O)C(C)Oc2ccc(Cl)cc2C)n1 (stereo unspecified)	8.91% (inactive)	–
Nc1nc(-c2ccc(Oc3ccccc3)cc2)cs1	6.84% (inactive)	–

Compound	activity change, negative = toxicity (at 50 µM (top of the series))	other results
CC(C)NC(=O)NC(=O)COC(=O)c1ccc([N+](=O)[O-])cc1Cl	-6.58% (inactive)	–
Cc1cccc(N2CCN(C(=O)C3COc4ccccc4O3)CC2)c1C (stereo unspecified)	-5.05% (inactive)	–
Cc1ccc(C)c(/C=C/C(=O)c2ccccc(=O)c2O)c1	-4.58% (inactive)	–
CC(C)C(=O)NC(c1cccc([N+](=O)[O-])c1)c1ccc2cccnc2c1O (stereo unspecified)	–	activity change, negative = toxicity (at 5.6 µM (top of the series)): -21% (inactive)
Cc1nc2ccc(C(=O)NCc3ccc4c(c3)OCO4)cc2s1	1.22% (inactive)	–
O=C(NCC1CC1(Cl)Cl)Nc1ccc(Cl)c(Cl)c1 (stereo unspecified)	17.4% (inactive)	–
CCOC(=O)c1cnc(-n2nc(C)cc2C)nc1NC1CCCC1	37.9% (inactive)	–
CCC(NC(=S)NCc1ccc(F)cc1)c1ccc(C(C)C)cc1 (stereo unspecified)	41.2% (inactive)	–
CN(c1ccccc1)c1nc(N2CCCC2)nc(-n2ccnc2)n1	11.2% (inactive)	–
O=C(c1ccc(-c2ccccc2)cc1)C1CCCN(C(=O)c2cncs2)C1 (stereo unspecified)	-8.68% (inactive)	–
C=CCOC(Cn1ccnc1)c1ccc(Cl)cc1Cl (stereo unspecified)	9.44% (inactive)	–
O=S(=O)(c1ccc(Cl)cc1)N1CCC2(CC1)OCCN2S(=O)(=O)c1cccs1	-0.748% (inactive)	–
COc1cc([N+](=O)[O-])cc(/C=N/NC(=O)c2cncc(Br)c2)c1O	-13.4% (inactive)	–
O=S(=O)(Nc1ccccc1)c1ccc(Oc2ncc(C(F)(F)F)cc2Cl)cc1	13% (inactive)	–
CCCCNC(=S)N/N=C1\CCCCc2ccccc21	1.99% (inactive)	–
O=P(Nc1cccnc1)(Oc1ccccc1Cl)Oc1ccccc1Cl	-1.87% (inactive)	–
OCCN(CCO)c1cc2c3ccccc3ccc2c2ccccc12	-14.3% (inactive)	–
CCCCCCSc1ccc(-c2nc3ccccn3c2NCCCC)cc1	14% (inactive)	–
O=C1OCC(CO)(CO)N=C1NNc1ccc(Cl)c(Cl)c1	2.06% (inactive)	–
Cc1ccc(C(=O)C(SC(C)(C)C)n2cncn2)cc1 (stereo unspecified)	10.4% (inactive)	–
S=C(NCc1ccco1)Nc1ccc(Oc2ccc(Cl)cc2)cc1	10.2% (inactive)	–
CCc1ccc(S(=O)(=O)N(C(=O)c2ccncc2)c2ccc(OC(=O)c3ccncc3)cc2)cc1	12.1% (inactive)	–
Cc1ccccc1Oc1nc(-c2ccccn2)nc2ccccc12	6.99% (inactive)	–

Compound	activity change, negative = toxicity (at 50 µM (top of the series))	other results
COc1ccc(N=N/C(=C\O)C(=O)c2cccs2)cc1	14.1% (inactive)	–
CCCCC(CC)c1nnc(NC(=O)c2cccs2)s1 (stereo unspecified)	-1.51% (inactive)	–
Cc1c(C2(O)CCCCC2)[nH]c2ccc(C(F)(F)F)cc12	-6.56% (inactive)	–
O=C(CSc1ccc(-c2ccccn2)nn1)NCc1ccc(F)cc1	-2.59% (inactive)	–
Oc1c(CN2CCCC2)cc(COCc2ccccc2)c2cccnc12	-2.61% (inactive)	–
C=C(C)COc1ccc(-c2[nH]ncc2-c2ccccc2)c(O)c1	-16.4% (inactive)	–
O=C(Nc1ccc(Cl)cc1C(=O)Nc1ccc(Br)cn1)c1ccco1	-5.93% (inactive)	–
Cc1nc(SCc2ccc(OCCC(C)C)cc2)n[nH]1	3.46% (inactive)	–
Cc1c(C(=O)O)cccc1-c1ccc(/C=N/Nc2ccc(Br)cc2)o1	-0.158% (inactive)	–
O=C(COc1ccccc1F)Nc1nc(-c2ccccn2)cs1	-8.96% (inactive)	–
CCn1c(CNc2ccc(Cl)cc2)nnc1SCc1ccc(Cl)cc1	12.6% (inactive)	–
CC1(C)CC(=O)C(N=Nc2ccc3ncsc3c2)=C(O)C1	3.01% (inactive)	–
COc1ccc2oc(=O)c(-c3csc(Nc4cccc(O)c4)n3)cc2c1	4.36% (inactive)	–
C=CCn1c(-c2cc(-c3ccc(C)cc3)nc3ccccc23)n[nH]c1=S	15.5% (inactive)	–
CC(C)(C)C(O)C(Cc1ccccc1Cl)n1cncn1 (stereo unspecified)	-1.54% (inactive)	–
Nc1cc2c3ccccc3ccc2c2ccccc12	-1.86% (inactive)	–
CC(C)C(=O)NC(c1ccco1)c1ccc2cccnc2c1O (stereo unspecified)	–	activity change, negative = toxicity (at 16 µM (top of the series)): -30% (inactive)
O=c1c2ccccc2c(-c2ccc(O)cc2)nn1-c1cccc(C(F)(F)F)c1	-18.6% (inactive)	–
CN(C)c1nc(SCc2ccc(Cl)cc2)nc2c1CCCC2	9.05% (inactive)	–
COc1ccc(N(C)S(=O)(=O)c2ccc(Cl)c(C(=O)NNC(=O)c3ccccc3O)c2)cc1	3.26% (inactive)	–
Cc1cc(C(=O)COC(=O)Cc2n[nH]c(=O)c3ccccc23)c(C)n1-c1cccc(C(F)(F)F)c1	24.5% (inactive)	–
CCC(C)c1ccc(NC(=S)NCCn2cc(Br)cn2)cc1 (stereo unspecified)	16.1% (inactive)	–
C=CCN(CC=C)C(=S)NC(=O)c1ccc(C)c(Br)c1	19.7% (inactive)	–

Compound	activity change, negative = toxicity (at 50 µM (top of the series))	other results
Cc1cc(Nc2ccccc2)nn1C(=O)c1ccccc1	10% (inactive)	–
O=Cc1cc(N=Nc2ccccc2Cl)ccc1O	-3.57% (inactive)	–
C=CCNc1nc(-c2ccccn2)nnc1-c1ccccc1	-23.8% (inactive)	–
COc1cccc(/C=N/NC(=O)c2nc(-c3ccccc3)cc(-c3ccccc3)n2)c1O	-8.68% (inactive)	–
O=C(c1ccc(Cl)cc1)N1CCN(c2ccc(F)cc2)CC1	5.81% (inactive)	–
O=C(COc1ccc([N+](=O)[O-])cc1)Nc1nc(-c2ccccn2)cs1	-17.8% (inactive)	–
CC1=CC(C)(C)N(S(=O)(=O)c2ccc(C)cc2)c2ccc(C)cc21	9.86% (inactive)	–
CC(=O)Nc1cccc(NC(=O)CSc2ccc(-c3ccccn3)nn2)c1	-9.54% (inactive)	–
O=c1c2ccccc2nc(-c2cccc(Cl)c2)n1O	4.83% (inactive)	–
FC(F)(F)c1nc(SCc2ccc(Cl)cc2Cl)n[nH]1	-4.01% (inactive)	–
Oc1c(Br)cc(-c2ccccc2)cc1Br	10.3% (inactive)	–
CCCS(=O)(=O)c1c(S(=O)(=O)CCC)c2c(C)cccn2c1C(=O)N/N=C/c1cc(O)cc(O)c1	-15.8% (inactive)	–
COc1ccc(-c2cc(C(=O)N3CCN(c4ccccc4F)CC3)c3ccccc3n2)c(OC)c1	-9.73% (inactive)	–
CCOc1ccc(N/N=C(/C#N)C(N)=O)cc1	9.15% (inactive)	–
CCCC(C)Sc1nc2c([nH]1)c(=S)n(C)c(=O)n2C (stereo unspecified)	0.769% (inactive)	–
c1ccc(Cn2cc(-c3cccnc3)cn2)cc1	-0.362% (inactive)	–
Cc1cc(Cl)ccc1C(=O)C1CCCN(C(=O)c2cncs2)C1 (stereo unspecified)	14.2% (inactive)	–
Cc1ccc(NC2(c3nnnn3-c3c(C)cccc3C)CCCCC2)cc1	0.981% (inactive)	–
COc1ccccc1C1CCN(C(=O)c2ccc(Cl)cc2)CC1	6.31% (inactive)	–
Cc1cc(/C=C2\SC(=S)N(C)C2=O)c(C)n1-c1ccc(O)cc1	6.11% (inactive)	–
S=C(Nc1ccc(Oc2ccccc2)cc1)NC1CCCCCC1	12.1% (inactive)	–
CCn1c2ccc(C)cc2c2nc3cc(C(=O)O)ccc3nc21	-4.25% (inactive)	–
